# Source: paper PMC11764660, “Self-Assembled Peptide Hydrogels PPI45 and PPI47: Novel Drug Candidates for Staphylococcus aureus Infection Treatment” (Gels, 2025)
# Residue numbers refer to the chain shown, from its start. Names may count otherwise. Positions of bridges follow the written chain, without caps; N, C: chain ends. Residues, ends and D or L forms follow the SMILES beside them.
# B1: PPI42 (peptide)
# chain: GFGCNGPWSEDDMKCHNHCKSIKGYKGGYCAKGGFLCKCY
# notes: mutant of the fungal defensin plectasin (40 amino acids); numbers count on: the mature protein; Forms fibrils and gels by self-assembly; also called self-assembling variant PPI42; defensin-derived peptide PPI42; source: Pichia pastoris X-33 (pPICZαA), fermentation supernatant, purified by cation exchange chromatography
# B2: PPI47 (peptide)
# chain: B1 chain with M13L, K14R
# notes: mutant of the fungal defensin plectasin, derived from PPI42 by 13M14K to 13L14R; numbers count on: the mature protein; M13L and K14R against the parent PPI42; also called PPI47:L13 R14; source: Pichia pastoris X-33 (pPICZαA), fermentation supernatant, purified by cation exchange chromatography
# B3: PPI45 (peptide)
# chain: B1 chain with S9N
# notes: mutant of the fungal defensin plectasin, derived from PPI42 by S9N; numbers count on: the mature protein; S9N against the parent PPI42; also called PPI45:N9; source: Pichia pastoris X-33 (pPICZαA), fermentation supernatant, purified by cation exchange chromatography
# Columns and labels:
# [1] = tested on: S. epidermidis ATCC 35984; assay: MIC assay; format: cell-based, Staphylococcus epidermidis; settings: 96-well plate, 10^5 CFU/mL, 37 °C, 12 to 18 h
# Procedure: (§1) A series of concentration gradients of peptide solution (10, 20, 40, 80, 160, 320, 640, and 1280 µg/mL) and the bacterial suspension (10^5 CFU/mL) were added to a 96-well plate at a volume ratio of 10 µL: 90 µL. Subsequently, the plate was incubated at 37 °C for 12 to 18 h. The concentration in the final well of the 96-well plate where no bacterial growth is evident corresponds to the MIC value.
# [2] = tested on: Pseudomonas aeruginosa ATCC 10104; assay: MBC assay; format: cell-based; settings: colony counting, 99.9% criterion
# Excerpt: (§2) Microbial cultures are quantified at concentrations surpassing the MIC to ascertain the number of viable bacterial cells. The lowest concentration at which the number of colonies is less than 99.9% at the time of initial inoculation is defined as MBC, which is capable of killing the bacteria.
# [3] = tested on: Streptococcus dysgalactiae CVCC 3938; assay: MBC assay; format: cell-based; settings: colony counting, 99.9% criterion
# Excerpt: as §2
# [4] = tested on: Streptococcus agalactiae ATCC 13813; assay: MBC assay; format: cell-based; settings: colony counting, 99.9% criterion
# Excerpt: as §2
# [5] = tested on: Escherichia coli ATCC 25922; assay: MBC assay; format: cell-based; settings: colony counting, 99.9% criterion
# Excerpt: as §2
# [6] = tested on: Staphylococcus aureus ATCC 43300; assay: MBC assay; format: cell-based; settings: colony counting at concentrations surpassing the MIC, 99.9% criterion
# Excerpt: as §2
# [7] = tested on: Staphylococcus epidermidis ATCC 12228; assay: MBC assay; format: cell-based; settings: colony counting, 99.9% criterion
# Excerpt: as §2
# [8] = tested on: S. aureus CVCC 546; assay: MIC assay; format: cell-based, Staphylococcus aureus; settings: 96-well plate, 10^5 CFU/mL, 37 °C, 12 to 18 h
# Procedure: as §1
# [9] = tested on: S. aureus ATCC 25923; assay: MIC assay; format: cell-based, Staphylococcus aureus; settings: 96-well plate, 10^5 CFU/mL, 37 °C, 12 to 18 h
# Procedure: as §1
# [10] = tested on: mouse erythrocytes; assay: Hemolytic activity; format: cell-based; settings: 1 h, 37 °C, absorbance 540 nm
# Procedure: Equal volumes of the erythrocyte suspension and the peptide dilutions were combined and incubated for one hour at 37 °C. Subsequently, the mixture was centrifuged at 2000 rpm for 5 min, and the supernatant was transferred to a 96-well plate. The absorbance was then measured at 540 nm. Triton X-100 and physiological saline were employed as positive and negative controls, respectively. The percentage of hemolysis was calculated via the following formula:Hemolysis (%) = [(Apeptide − Asaline)/(A0.1% Triton X-100 − Asaline)] × 100%.
# [11] = tested on: S. aureus CVCC 546; assay: MBC assay; format: cell-based, Staphylococcus aureus; settings: colony counting, 99.9% criterion
# Excerpt: as §2
# [12] = tested on: S. aureus ATCC 25923; assay: MBC assay; format: cell-based, Staphylococcus aureus; settings: colony counting, 99.9% criterion
# Excerpt: as §2
# [13] = tested on: HaCaT cells; assay: Cytotoxicity analysis (CCK-8); format: cell-based, human; settings: 2–256 µg/mL, 24 h, CCK-8, absorbance 450 nm, six replicates
# Procedure: HaCaT cells, at a density of 2.5 × 10^5 cells/mL, were inoculated into 96-well plates and incubated in a cell culture incubator for 24 h. Following the removal of the medium, an equal volume of peptide solution, ranging in concentration from 2 to 256 µg/mL, was added, and the cells were incubated for an additional 24 h. The medium was subsequently removed, and the wells were washed three times with saline. CCK-8 solution ([…], 100 µL per well) was then added, and the plates were incubated for 2 h. Absorbance was measured at 450 nm using a microplate reader. Saline served as the negative control, while the medium without cells was used as the blank control. Six replicates were set for each concentration. Cell survival is calculated as follows: (As − Ab)/(Ac − Ab) × 100%.
# As: Absorbance value of the experimental group (medium containing cells, sample, CCK-8)
# Ac: Absorbance value of the control group (medium containing cells, no sample, CCK-8)
# Ab: Absorbance value of the blank group (medium without cells, no sample, CCK-8)
# [14] = tested on: S. epidermidis ATCC 35984; assay: MBC assay; format: cell-based, Staphylococcus epidermidis; settings: colony counting, 99.9% criterion
# Excerpt: as §2
# [15] = tested on: Pseudomonas aeruginosa ATCC 10104; assay: MIC assay; format: cell-based; settings: 96-well plate, 10^5 CFU/mL, 37 °C, 12 to 18 h
# Procedure: as §1
# [16] = tested on: Streptococcus dysgalactiae CVCC 3938; assay: MIC assay; format: cell-based; settings: 96-well plate, 10^5 CFU/mL, 37 °C, 12 to 18 h
# Procedure: as §1
# [17] = tested on: Streptococcus agalactiae ATCC 13813; assay: MIC assay; format: cell-based; settings: 96-well plate, 10^5 CFU/mL, 37 °C, 12 to 18 h
# Procedure: as §1
# [18] = tested on: Escherichia coli ATCC 25922; assay: MIC assay; format: cell-based; settings: 96-well plate, 10^5 CFU/mL, 37 °C, 12 to 18 h
# Procedure: as §1
# [19] = tested on: Staphylococcus aureus ATCC 43300; assay: MIC assay; format: cell-based; settings: 96-well plate, 10^5 CFU/mL, 37 °C, 12 to 18 h
# Procedure: as §1
# [20] = tested on: Staphylococcus epidermidis ATCC 12228; assay: MIC assay; format: cell-based; settings: 96-well plate, 10^5 CFU/mL, 37 °C, 12 to 18 h
# Procedure: as §1
# [21] = molecular target: the molecule itself; assay: transmission electron microscopy; peptide solution at its CMC on a copper grid, stained with phosphotungstic acid; monomers to fibres
# [22] = concentration range 20–2560 µg/mL
molecule,measurement,setting,value
"CC[C@H](C)[C@@H]1NC(=O)[C@H](CO)NC(=O)[C@H](CCCCN)NC(=O)[C@@H]2CSSC[C@@H](C(=O)N[C@@H](Cc3ccc(O)cc3)C(=O)O)NC(=O)[C@H](CCCCN)NC(=O)[C@@H]3CSSC[C@H](NC(=O)[C@H](CCCCN)NC(=O)[C@H](CCSC)NC(=O)[C@H](CC(=O)O)NC(=O)[C@H](CC(=O)O)NC(=O)[C@H](CCC(=O)O)NC(=O)[C@H](CO)NC(=O)[C@H](Cc4c[nH]c5ccccc45)NC(=O)[C@@H]4CCCN4C(=O)CNC(=O)[C@H](CC(N)=O)NC(=O)[C@@H](NC(=O)CNC(=O)[C@H](Cc4ccccc4)NC(=O)CN)CSSC[C@H](NC(=O)[C@H](Cc4ccc(O)cc4)NC(=O)CNC(=O)CNC(=O)[C@H](CCCCN)NC(=O)[C@H](Cc4ccc(O)cc4)NC(=O)CNC(=O)[C@H](CCCCN)NC1=O)C(=O)N[C@@H](C)C(=O)N[C@@H](CCCCN)C(=O)NCC(=O)NCC(=O)N[C@@H](Cc1ccccc1)C(=O)N[C@@H](CC(C)C)C(=O)N3)C(=O)N[C@@H](Cc1c[nH]cn1)C(=O)N[C@@H](CC(N)=O)C(=O)N[C@@H](Cc1c[nH]cn1)C(=O)N2 [PPI42, reference compound] (H-GFGCNGPWSEDDMKCHNHCKSIKGYKGGYCAKGGFLCKCY-OH; disulfide 4-30, 15-37, 19-39)",MIC,[1],2 mg/L
same,MBC,[2],>64 mg/L
same,MBC,[3],4 mg/L
same,MBC,[4],0.5 mg/L
same,MBC,[5],>64 mg/L
same,MBC,[6],8 mg/L
same,MBC,[7],8 mg/L
same,MIC,[8],2 mg/L
same,MIC,[9],8 mg/L
same,hemolysis,[10]; 2560 µg/mL,10%
same,hemolysis,[10]; up to 1280 µg/mL,minimal hemolysis
same,MBC,[11],4 mg/L
same,MBC,[12],16 mg/L
same,cytotoxicity towards HaCaT cells,[13],growth-promoting effects
same,MBC,[14],8 mg/L
same,MIC,[15],>64 mg/L
same,MIC,[16],4 mg/L
same,MIC,[17],0.5 mg/L
same,MIC,[18],>64 mg/L
same,MIC,[19],8 mg/L
same,MIC,[20],4 mg/L
"CC[C@H](C)[C@@H]1NC(=O)[C@H](CO)NC(=O)[C@H](CCCCN)NC(=O)[C@@H]2CSSC[C@@H](C(=O)N[C@@H](Cc3ccc(O)cc3)C(=O)O)NC(=O)[C@H](CCCCN)NC(=O)[C@@H]3CSSC[C@H](NC(=O)[C@H](CCCCN)NC(=O)[C@H](CCSC)NC(=O)[C@H](CC(=O)O)NC(=O)[C@H](CC(=O)O)NC(=O)[C@H](CCC(=O)O)NC(=O)[C@H](CC(N)=O)NC(=O)[C@H](Cc4c[nH]c5ccccc45)NC(=O)[C@@H]4CCCN4C(=O)CNC(=O)[C@H](CC(N)=O)NC(=O)[C@@H](NC(=O)CNC(=O)[C@H](Cc4ccccc4)NC(=O)CN)CSSC[C@H](NC(=O)[C@H](Cc4ccc(O)cc4)NC(=O)CNC(=O)CNC(=O)[C@H](CCCCN)NC(=O)[C@H](Cc4ccc(O)cc4)NC(=O)CNC(=O)[C@H](CCCCN)NC1=O)C(=O)N[C@@H](C)C(=O)N[C@@H](CCCCN)C(=O)NCC(=O)NCC(=O)N[C@@H](Cc1ccccc1)C(=O)N[C@@H](CC(C)C)C(=O)N3)C(=O)N[C@@H](Cc1c[nH]cn1)C(=O)N[C@@H](CC(N)=O)C(=O)N[C@@H](Cc1c[nH]cn1)C(=O)N2 [PPI45] (H-GFGCNGPWNEDDMKCHNHCKSIKGYKGGYCAKGGFLCKCY-OH; disulfide 4-30, 15-37, 19-39)",MIC,[1],16 mg/L
same,MBC,[2],>64 mg/L
same,MBC,[3],4 mg/L
same,MBC,[4],0.5 mg/L
same,MBC,[5],>64 mg/L
same,MBC,[6],4 mg/L
same,MBC,[7],4 mg/L
same,MIC,[8],4 mg/L
same,MIC,[9],16 mg/L
same,hemolysis,[10]; [22],no hemolysis
same,MBC,[11],4 mg/L
same,MBC,[12],16 mg/L
same,cytotoxicity towards HaCaT cells,[13],did not exhibit cytotoxicity
same,MBC,[14],16 mg/L
same,MIC,[15],>64 mg/L
same,MIC,[16],1 mg/L
same,MIC,[17],0.5 mg/L
same,MIC,[18],>64 mg/L
same,MIC,[19],4 mg/L
same,MIC,[20],4 mg/L
"CC[C@H](C)[C@@H]1NC(=O)[C@H](CO)NC(=O)[C@H](CCCCN)NC(=O)[C@@H]2CSSC[C@@H](C(=O)N[C@@H](Cc3ccc(O)cc3)C(=O)O)NC(=O)[C@H](CCCCN)NC(=O)[C@@H]3CSSC[C@H](NC(=O)[C@H](CCCNC(=N)N)NC(=O)[C@H](CC(C)C)NC(=O)[C@H](CC(=O)O)NC(=O)[C@H](CC(=O)O)NC(=O)[C@H](CCC(=O)O)NC(=O)[C@H](CO)NC(=O)[C@H](Cc4c[nH]c5ccccc45)NC(=O)[C@@H]4CCCN4C(=O)CNC(=O)[C@H](CC(N)=O)NC(=O)[C@@H](NC(=O)CNC(=O)[C@H](Cc4ccccc4)NC(=O)CN)CSSC[C@H](NC(=O)[C@H](Cc4ccc(O)cc4)NC(=O)CNC(=O)CNC(=O)[C@H](CCCCN)NC(=O)[C@H](Cc4ccc(O)cc4)NC(=O)CNC(=O)[C@H](CCCCN)NC1=O)C(=O)N[C@@H](C)C(=O)N[C@@H](CCCCN)C(=O)NCC(=O)NCC(=O)N[C@@H](Cc1ccccc1)C(=O)N[C@@H](CC(C)C)C(=O)N3)C(=O)N[C@@H](Cc1c[nH]cn1)C(=O)N[C@@H](CC(N)=O)C(=O)N[C@@H](Cc1c[nH]cn1)C(=O)N2 [PPI47] (H-GFGCNGPWSEDDLRCHNHCKSIKGYKGGYCAKGGFLCKCY-OH; disulfide 4-30, 15-37, 19-39)",MIC,[1],16 mg/L
same,MBC,[2],>64 mg/L
same,MBC,[3],4 mg/L
same,MBC,[4],0.5 mg/L
same,MBC,[5],>64 mg/L
same,MBC,[6],8 mg/L
same,MBC,[7],8 mg/L
same,MIC,[8],4 mg/L
same,MIC,[9],16 mg/L
same,hemolysis,[10]; [22],no hemolysis
same,MBC,[11],4 mg/L
same,MBC,[12],16 mg/L
same,cytotoxicity towards HaCaT cells,[13],did not exhibit cytotoxicity
same,MBC,[14],16 mg/L
same,MIC,[15],>64 mg/L
same,MIC,[16],2 mg/L
same,MIC,[17],0.5 mg/L
same,MIC,[18],>64 mg/L
same,MIC,[19],4 mg/L
same,MIC,[20],4 mg/L
B1,binding result,[21],binds
B2,binding result,[21],binds
B3,binding result,[21],binds
